Reference: patent US9975907B2, “Pyrimidinones as PI3K inhibitors” (Incyte Corporation, priority 2009, dated 2018)

Assays:
Type in all cases: biochemical
PI3Kδ (p110δ/p85α) = PI3Kδ (p110δ/p85α) (Homo sapiens (Human), UniProt O00329); assay: AlphaScreen Assay for PI3Kδ (Assay A1); details: column a, 20 μM ATP
Text: PI3-Kinase luminescent assay kit including lipid kinase substrate, D-myo-phosphatidylinositol 4,5-bisphosphate (PtdIns(4,5)P2)D (+)-sn-1,2-di-O-octanoylglyceryl, 3-O-phospho linked (PIP2), biotinylated I(1,3,4,5)P4, PI(3,4,5)P3 Detector Protein, was purchased from Echelon Biosciences (Salt Lake City, Utah). AlphaScreen™ GST Detection Kit including donor and acceptor beads was purchased from PerkinElmer Life Sciences (Waltham, Mass.). PI3Kδ (p110δ/p85α) was purchased from Millipore (Bedford, Mass.). ATP, MgCb, DTT, EDTA, HEPES and CHAPS were purchased from Sigma-Aldrich (St. Louis, Mo.).
AlphaScreen™ Assay for PI3Kδ
The kinase reaction was conducted in 384-well REMP plate from Thermo Fisher Scientific in a final volume of 40 μL. Inhibitors were first diluted serially in DMSO and added to the plate wells before the addition of other reaction components. The final concentration of DMSO in the assay was 2%. The PI3K assays were carried out at room temperature in 50 mM HEPES, pH 7.4, 5 mM MgCl2, 50 mM NaCl, 5 mM DTT and CHAPS 0.04%. Reactions were initiated by the addition of ATP, the final reaction mixture consisted of 20 μM PIP2, 20 μM ATP, 1.2 nM PI3Kδ were incubated for 20 min. 10 μL of reaction mixture was then transferred to 5 μL 50 nM biotinylated I(1,3,4,5)P4 in quench buffer: 50 mM HEPES pH 7.4, 150 mM NaCl, 10 mM EDTA, 5 mM DTT, 0.1% Tween-20, followed with the addition of 10 μL AlphaScreen™ donor and acceptor beads suspended in quench buffer containing 25 nM PI(3,4,5)P3 detector protein. The final concentration of both donor and acceptor beads is […]. After plate sealing, the plate was incubated in a dark location at room temperature for 2 hours. The activity of the product was determined on Fusion-alpha microplate reader (Perkin-Elmer). IC50 determination was performed by fitting the curve of percent control activity versus the log of the inhibitor concentration using the GraphPad Prism 3.0 software.

PI3Kα = PI3Kα (Homo sapiens (Human), UniProt P42336); assay: PI3K Enzyme Assay A2 ([γ-33P]ATP filter plate), PI3Kα; details: Assay A2, 1000 μM ATP
Chain of PI3Kα (P42336 whole entry, species assumed, canonical isoform): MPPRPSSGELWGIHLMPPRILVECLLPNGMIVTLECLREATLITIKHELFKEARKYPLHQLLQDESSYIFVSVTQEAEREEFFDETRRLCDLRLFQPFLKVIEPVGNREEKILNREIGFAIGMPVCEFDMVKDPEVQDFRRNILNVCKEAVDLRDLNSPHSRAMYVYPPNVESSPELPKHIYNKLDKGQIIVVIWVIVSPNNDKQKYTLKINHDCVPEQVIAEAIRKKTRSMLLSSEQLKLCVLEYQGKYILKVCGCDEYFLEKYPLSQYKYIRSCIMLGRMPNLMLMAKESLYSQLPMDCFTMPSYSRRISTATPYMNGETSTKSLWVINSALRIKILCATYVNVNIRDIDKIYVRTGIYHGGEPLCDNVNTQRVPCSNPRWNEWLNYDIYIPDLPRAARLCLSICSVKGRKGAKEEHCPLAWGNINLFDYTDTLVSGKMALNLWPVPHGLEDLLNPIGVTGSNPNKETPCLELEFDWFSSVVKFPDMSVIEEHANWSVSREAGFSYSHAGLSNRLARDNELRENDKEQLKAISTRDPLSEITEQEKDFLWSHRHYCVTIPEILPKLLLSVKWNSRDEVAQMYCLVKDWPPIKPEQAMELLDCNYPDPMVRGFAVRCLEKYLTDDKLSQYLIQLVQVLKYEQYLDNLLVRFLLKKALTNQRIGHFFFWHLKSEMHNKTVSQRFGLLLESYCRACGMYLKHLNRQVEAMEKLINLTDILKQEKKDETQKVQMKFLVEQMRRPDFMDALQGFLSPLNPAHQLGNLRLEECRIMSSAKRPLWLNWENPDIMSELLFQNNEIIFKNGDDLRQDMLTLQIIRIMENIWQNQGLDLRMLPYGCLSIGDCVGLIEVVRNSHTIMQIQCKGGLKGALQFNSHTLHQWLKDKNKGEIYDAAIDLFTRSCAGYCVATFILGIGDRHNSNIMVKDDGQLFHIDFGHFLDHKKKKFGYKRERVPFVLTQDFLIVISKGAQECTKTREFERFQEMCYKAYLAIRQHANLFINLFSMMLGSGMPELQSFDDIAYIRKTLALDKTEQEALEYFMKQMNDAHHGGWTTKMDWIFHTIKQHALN
Chain of PI3Kα (P27986 whole entry partner, species assumed, canonical isoform): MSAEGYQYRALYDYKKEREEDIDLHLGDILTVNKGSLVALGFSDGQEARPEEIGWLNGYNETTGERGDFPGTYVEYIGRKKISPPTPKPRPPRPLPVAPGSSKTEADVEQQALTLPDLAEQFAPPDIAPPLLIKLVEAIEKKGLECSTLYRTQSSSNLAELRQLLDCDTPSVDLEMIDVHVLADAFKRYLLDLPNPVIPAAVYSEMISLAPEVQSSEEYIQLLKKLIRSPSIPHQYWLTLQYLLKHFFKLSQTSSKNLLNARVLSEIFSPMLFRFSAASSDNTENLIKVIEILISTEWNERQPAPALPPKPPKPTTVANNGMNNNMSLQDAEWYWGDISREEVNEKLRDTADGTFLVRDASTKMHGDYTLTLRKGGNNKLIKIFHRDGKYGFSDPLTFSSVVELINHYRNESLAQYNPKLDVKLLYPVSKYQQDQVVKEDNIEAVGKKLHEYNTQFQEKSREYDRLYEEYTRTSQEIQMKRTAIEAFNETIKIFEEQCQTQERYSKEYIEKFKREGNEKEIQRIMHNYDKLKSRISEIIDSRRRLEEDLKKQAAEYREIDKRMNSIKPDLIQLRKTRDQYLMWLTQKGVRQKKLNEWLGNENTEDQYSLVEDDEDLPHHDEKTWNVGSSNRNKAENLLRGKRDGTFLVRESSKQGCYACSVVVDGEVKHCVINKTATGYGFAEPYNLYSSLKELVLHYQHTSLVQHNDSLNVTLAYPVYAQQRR
Method: Materials: Lipid kinase substrate, phosphoinositol-4,5-bisphosphate (PIP2), was purchased from Echelon Biosciences (Salt Lake City, Utah). PI3K isoforms α, β, δ and γ were purchased from Millipore (Bedford, Mass.). ATP, MgCh, DTT, EDTA, MOPS and CHAPS were purchased from Sigma-Aldrich (St. Louis, Mo.). The kinase reaction was conducted in clear-bottom 96-well plate from Thermo Fisher Scientific in a final volume of 24 μL. Inhibitors were first diluted serially in DMSO and added to the plate wells before the addition of other reaction components. The final concentration of DMSO in the assay was 0.5%. The PI3K assays were carried out at room temperature in 20 mM MOPS, pH 6.7, 10 mM MgCl2, 5 mM DTT and CHAPS 0.03%. The reaction mixture was prepared containing 50 μM PIP2, kinase and varying concentration of inhibitors. Reactions were initiated by the addition of ATP containing 2.2 μCi [γ-^33P]ATP to a final concentration of 1000 μM. […] Reactions were incubated for 180 min and terminated by the addition of 100 μL of 1 M potassium phosphate pH 8.0, 30 mM EDTA quench buffer. A 100 μL aliquot of the reaction solution was then transferred to 96-well Millipore MultiScreen IP 0.45 μm PVDF filter plate (The filter plate was prewetted with 200 μL 100% ethanol, distilled water, and 1 M potassium phosphate pH 8.0, respectively). The filter plate was aspirated on a Millipore Manifold under vacuum and washed with 18×200 μL wash buffer containing 1 M potassium phosphate pH 8.0 and 1 mM ATP. After drying by aspiration and blotting, the plate was air dried in an incubator at 37° C. overnight. Packard TopCount adapter (Millipore) was then attached to the plate followed with addition of 120 μL Microscint 20 scintillation cocktail (Perkin Elmer) in each well. After the plate sealing, the radioactivity of the product was determined by scintillation counting on Topcount (Perkin-Elmer). IC50 determination was performed by fitting the curve of percent control activity versus the log of the inhibitor concentration using the GraphPad Prism 3.0 software.

PI3Kγ = PI3Kγ (Homo sapiens (Human), UniProt P48736); assay: PI3K Enzyme Assay A2 ([γ-33P]ATP filter plate), PI3Kγ; details: Assay A2, 1000 μM ATP
Chain of PI3Kγ (P48736 whole entry, species assumed, canonical isoform): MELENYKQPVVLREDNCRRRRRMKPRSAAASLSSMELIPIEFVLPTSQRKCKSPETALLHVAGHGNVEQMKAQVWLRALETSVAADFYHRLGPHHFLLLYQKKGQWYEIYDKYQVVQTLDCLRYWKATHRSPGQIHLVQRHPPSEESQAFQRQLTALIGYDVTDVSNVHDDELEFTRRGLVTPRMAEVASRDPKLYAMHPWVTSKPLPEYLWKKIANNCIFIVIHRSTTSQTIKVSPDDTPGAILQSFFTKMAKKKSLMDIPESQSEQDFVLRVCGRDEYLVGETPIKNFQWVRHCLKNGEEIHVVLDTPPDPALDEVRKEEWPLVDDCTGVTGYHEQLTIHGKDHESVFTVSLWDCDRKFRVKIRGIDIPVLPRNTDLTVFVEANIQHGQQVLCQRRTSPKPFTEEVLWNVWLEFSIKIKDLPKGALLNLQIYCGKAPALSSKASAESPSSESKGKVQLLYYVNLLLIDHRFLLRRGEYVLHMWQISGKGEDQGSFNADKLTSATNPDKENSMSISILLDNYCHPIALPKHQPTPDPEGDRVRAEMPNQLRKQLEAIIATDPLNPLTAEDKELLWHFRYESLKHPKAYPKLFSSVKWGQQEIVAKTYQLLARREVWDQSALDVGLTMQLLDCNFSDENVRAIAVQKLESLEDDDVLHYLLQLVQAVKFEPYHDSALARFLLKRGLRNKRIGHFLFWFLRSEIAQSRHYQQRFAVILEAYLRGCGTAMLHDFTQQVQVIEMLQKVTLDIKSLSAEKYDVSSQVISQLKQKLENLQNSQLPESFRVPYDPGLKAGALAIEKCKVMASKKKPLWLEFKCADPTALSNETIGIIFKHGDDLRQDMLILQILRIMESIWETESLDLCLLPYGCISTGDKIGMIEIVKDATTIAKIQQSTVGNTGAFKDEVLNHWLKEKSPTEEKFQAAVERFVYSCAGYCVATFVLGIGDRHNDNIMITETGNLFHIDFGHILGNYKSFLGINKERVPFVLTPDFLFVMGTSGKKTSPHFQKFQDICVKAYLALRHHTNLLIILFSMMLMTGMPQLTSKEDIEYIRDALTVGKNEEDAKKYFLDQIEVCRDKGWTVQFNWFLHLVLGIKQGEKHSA
Method: Materials: Lipid kinase substrate, phosphoinositol-4,5-bisphosphate (PIP2), was purchased from Echelon Biosciences (Salt Lake City, Utah). PI3K isoforms α, β, δ and γ were purchased from Millipore (Bedford, Mass.). ATP, MgCh, DTT, EDTA, MOPS and CHAPS were purchased from Sigma-Aldrich (St. Louis, Mo.).
The kinase reaction was conducted in clear-bottom 96-well plate from Thermo Fisher Scientific in a final volume of 24 μL. Inhibitors were first diluted serially in DMSO and added to the plate wells before the addition of other reaction components. The final concentration of DMSO in the assay was 0.5%. The PI3K assays were carried out at room temperature in 20 mM MOPS, pH 6.7, 10 mM MgCl2, 5 mM DTT and CHAPS 0.03%. The reaction mixture was prepared containing 50 μM PIP2, kinase and varying concentration of inhibitors. Reactions were initiated by the addition of ATP containing 2.2 μCi [γ-^33P]ATP to a final concentration of 1000 μM. The final concentration of PI3K isoforms α, β, δ and γ in the assay were 1.3, 9.4, 2.9 and 10.8 nM respectively. Reactions were incubated for 180 min and terminated by the addition of 100 μL of 1 M potassium phosphate pH 8.0, 30 mM EDTA quench buffer. A 100 μL aliquot of the reaction solution was then transferred to 96-well Millipore MultiScreen IP 0.45 μm PVDF filter plate (The filter plate was prewetted with 200 μL 100% ethanol, distilled water, and 1 M potassium phosphate pH 8.0, respectively). The filter plate was aspirated on a Millipore Manifold under vacuum and washed with 18×200 μL wash buffer containing 1 M potassium phosphate pH 8.0 and 1 mM ATP. After drying by aspiration and blotting, the plate was air dried in an incubator at 37° C. overnight. Packard TopCount adapter (Millipore) was then attached to the plate followed with addition of 120 μL Microscint 20 scintillation cocktail (Perkin Elmer) in each well. After the plate sealing, the radioactivity of the product was determined by scintillation counting on Topcount (Perkin-Elmer). IC50 determination was performed by fitting the curve of percent control activity versus the log of the inhibitor concentration using the GraphPad Prism 3.0 software. […] See Table 1 for data related to compounds of the invention.

Chain of PI3Kδ (p110δ/p85α) (O00329 whole entry, species assumed): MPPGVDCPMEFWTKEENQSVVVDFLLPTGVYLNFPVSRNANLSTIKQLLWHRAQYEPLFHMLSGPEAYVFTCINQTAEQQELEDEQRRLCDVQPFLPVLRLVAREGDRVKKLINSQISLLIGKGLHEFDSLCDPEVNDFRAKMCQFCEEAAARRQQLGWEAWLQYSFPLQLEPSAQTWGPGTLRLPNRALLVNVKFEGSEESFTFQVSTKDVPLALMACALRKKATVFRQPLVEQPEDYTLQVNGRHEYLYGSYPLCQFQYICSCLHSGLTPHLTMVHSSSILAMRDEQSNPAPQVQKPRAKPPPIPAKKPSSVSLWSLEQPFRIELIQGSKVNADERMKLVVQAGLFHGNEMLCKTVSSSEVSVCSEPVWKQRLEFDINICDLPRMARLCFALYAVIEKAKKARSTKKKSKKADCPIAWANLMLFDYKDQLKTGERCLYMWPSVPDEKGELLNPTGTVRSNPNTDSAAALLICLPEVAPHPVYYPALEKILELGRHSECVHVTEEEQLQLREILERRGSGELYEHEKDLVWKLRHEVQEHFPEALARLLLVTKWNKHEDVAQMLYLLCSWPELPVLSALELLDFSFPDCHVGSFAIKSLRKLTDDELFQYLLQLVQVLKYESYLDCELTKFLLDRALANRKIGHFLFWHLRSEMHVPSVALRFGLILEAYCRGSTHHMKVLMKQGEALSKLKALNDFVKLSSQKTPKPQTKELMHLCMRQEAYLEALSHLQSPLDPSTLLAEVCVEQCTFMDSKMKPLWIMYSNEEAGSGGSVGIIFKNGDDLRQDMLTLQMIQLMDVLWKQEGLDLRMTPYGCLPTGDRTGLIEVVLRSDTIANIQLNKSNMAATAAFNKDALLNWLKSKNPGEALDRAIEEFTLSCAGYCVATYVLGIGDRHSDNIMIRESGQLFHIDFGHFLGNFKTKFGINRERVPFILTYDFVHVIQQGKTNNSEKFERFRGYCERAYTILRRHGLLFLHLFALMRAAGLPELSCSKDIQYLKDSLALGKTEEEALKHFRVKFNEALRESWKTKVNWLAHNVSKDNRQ
Chain of PI3Kδ (p110δ/p85α) (P27986 whole entry partner, species assumed): as the sequence (P27986 whole entry partner, species assumed, canonical isoform) above

Row | Compound | IC50 (PI3Kδ (p110δ/p85α)) | IC50 (PI3Kα) | IC50 (PI3Kγ)
1 | Cc1csc2nc(C(C)Nc3nc(N)nc4[nH]cnc34)c(-c3cccc(F)c3)c(=O)n12 (stereo not drawn) [Example 11, 7-{1-[(2-amino-9H-purin-6-yl)amino]ethyl}-6-(3-fluorophenyl)-3-methyl-5H-[1,3]thiazolo[3,2-a]pyrimidin-5-one] | < 50 nM | > 500 nM | 100 to 500 nM
2 | Cc1csc2nc(C(C)Nc3nc(N)nc4[nH]cnc34)c(-c3ccccc3)c(=O)n12 (stereo not drawn) [Example 9, 7-{1-[(2-amino-9H-purin-6-yl)amino]ethyl}-3-methyl-6-phenyl-5H-[1,3]thiazolo[3,2-a]pyrimidin-5-one] | < 50 nM | > 500 nM | 50 to 100 nM
3 | Cc1csc2nc(C(C)Nc3nc(N)nc4[nH]cnc34)c(-c3cc(F)cc(F)c3)c(=O)n12 (stereo not drawn) [Example 13, 7-{1-[(2-amino-9H-purin-6-yl)amino]ethyl}-6-(3,5-difluorophenyl)-3-methyl-5H-[1,3]thiazolo[3,2-a]pyrimidin-5-one] | < 50 nM | > 500 nM | 100 to 500 nM
